The values below come from article PMC5384001 (Scientific Reports, 2017).

The term Kd denotes the constant that tells how readily two partners part at equilibrium.

Experiment [1] has as its target T1, GluD2-(H)GluN1 (Rattus norvegicus, UniProt Q63226, A766F/D542Y/D767R/N763E/R768S/S544G/T764L/V761T/V765F/Y543Q).
T1 construct: have an effect on the function of full-length receptors as well; expressed in transfected cells; host or cells: Xenopus laevis oocytes injected with cRNA
T1 sequence (Q63226 24-1007 D542Y/Y543Q/S544G/V761T/N763E/T764L/V765F/A766F/D767R/R768S): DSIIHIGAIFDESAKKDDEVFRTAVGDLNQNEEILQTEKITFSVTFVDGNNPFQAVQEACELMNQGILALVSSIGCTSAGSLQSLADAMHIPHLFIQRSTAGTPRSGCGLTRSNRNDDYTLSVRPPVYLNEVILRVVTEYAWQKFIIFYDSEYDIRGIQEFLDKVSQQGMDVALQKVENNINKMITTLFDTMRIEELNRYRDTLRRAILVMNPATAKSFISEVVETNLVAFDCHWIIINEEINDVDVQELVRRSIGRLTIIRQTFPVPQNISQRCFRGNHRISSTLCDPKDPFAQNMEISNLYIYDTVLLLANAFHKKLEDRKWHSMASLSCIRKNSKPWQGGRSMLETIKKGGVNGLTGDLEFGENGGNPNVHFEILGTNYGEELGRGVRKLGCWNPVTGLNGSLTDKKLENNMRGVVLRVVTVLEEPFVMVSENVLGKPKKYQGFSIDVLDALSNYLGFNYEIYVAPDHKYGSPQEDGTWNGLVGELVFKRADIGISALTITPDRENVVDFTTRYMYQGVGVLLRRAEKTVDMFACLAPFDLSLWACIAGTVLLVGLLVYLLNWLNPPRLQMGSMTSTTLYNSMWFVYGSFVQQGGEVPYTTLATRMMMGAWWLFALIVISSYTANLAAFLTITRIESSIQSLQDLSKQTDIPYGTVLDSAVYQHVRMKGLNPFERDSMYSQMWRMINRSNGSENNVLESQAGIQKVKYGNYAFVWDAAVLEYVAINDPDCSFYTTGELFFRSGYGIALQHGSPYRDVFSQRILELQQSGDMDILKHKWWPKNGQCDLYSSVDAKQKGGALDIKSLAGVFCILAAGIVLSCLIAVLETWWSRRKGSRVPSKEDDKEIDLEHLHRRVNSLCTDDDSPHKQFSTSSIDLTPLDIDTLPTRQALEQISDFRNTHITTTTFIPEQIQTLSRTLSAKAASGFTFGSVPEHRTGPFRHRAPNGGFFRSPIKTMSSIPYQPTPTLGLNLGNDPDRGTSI
Put plainly: Two-electrode voltage clamp in Xenopus oocytes, current response. Format: cell-based. On the procedure: (§1) Oocytes were obtained by surgically removing parts of the ovaries from Xenopus laevis (Nasco, Fort Atkinson, WI, USA) anaesthetised with 1.5 g/L 3-aminobenzoic acid ethylester (Sigma, Taufkirchen, Germany). The ovary clippings were digested with 784 U/mL (4 mg/mL) collagenase type I (Worthington, Lakewood, NJ, USA) in Ca^2+-free Barth’s solution (88 mM NaCl, 1.1 mM KCl, 2.4 mM NaHCO3, 0.8 mM MgSO4, 15 mM HEPES-NaOH, pH 7.6) with gentle agitation for 1.5–2 h at 20 °C to remove the follicular cell layer. After stopping the collagenase digestion by washing with Barth’s solution (88 mM NaCl, 1.1 mM KCl, 2.4 mM NaHCO3, 0.3 mM Ca(NO3)2, 0.4 mM CaCl2, 0.8 mM MgSO4, 15 mM HEPES-NaOH, pH 7.6), defolliculated oocytes of stages V and VI were selected and maintained at 16 °C in Barth’s solution supplemented with 100 μg/mL gentamicin, 40 μg/mL streptomycin, and 63 μg/mL penicillin. Oocytes were injected with 11 ng cRNA (10 ng of each cRNA for co-expression of GluN1 and GluN2A) using a nanoliter injector (WPI, Sarasota, FL, USA). Four days after cRNA injection, current responses were recorded under voltage clamp at –70 mV with a Turbo Tec-10CD amplifier (npi electronic, Tamm, Germany) controlled by Patchmaster software (HEKA, Lambrecht, Germany). Currents were filtered with a 20 Hz low-pass filter and then digitised with a sampling rate of 50 Hz. Recording electrodes were pulled from borosilicate glass (Hilgenberg, Malsfeld, Germany) with an L/M-3P-A vertical pipette puller (List-Medical), filled with 3 M KCl, and had resistances of 0.5–5 MΩ (voltage electrode) or 0.5–1.5 MΩ (current electrode). Recordings were performed in a 50 μL chamber under constant superfusion with extracellular solution at a flow rate of 3–5 mL/min. […] Finally, Ba-NFR and then NMDGR were applied again to check for reversibility.

The target of experiment [2] is T2, GluN1-1a-(H)GluD2 with GluN2A (Rattus norvegicus, UniProt P35439, E751N/F753V/F754A/G537S/L752T/Q536Y/R755D/S756R/T749V/Y535D).
T2 construct: expressed in transfected cells; host or cells: Xenopus laevis oocytes injected with cRNA
The description is as above. Format: cell-based. Conditions: 100 μM glutamate plus 1 mM D-serine, n = 23. On the procedure:
as §1

Experiment [3] has as its target GluN3B LBD. Set-up: method as in PMID 18636091. Conditions: cited from earlier work.

For the compound `N[C@H](CO)C(=O)O` [D-serine], the current response in experiment [1] (10 μM D-serine, n = 14) is recorded as 1.1 ± 0.6 nA; in experiment [1] (1 mM D-serine, n = 22), 2.3 ± 0.4 nA; in experiment [2], 5.8 ± 1.0 nA. In addition, the Kd in experiment [3] is 163 nM.
